Assay in one data set: not given
In the case of `COCc1ccc(C#N)cc1`, the logP (usually a log measure of how a compound divides between an organic and an aqueous phase) is 1.23.

The nature of a further data set: method code SF-AS, from Wang, W.; Wang, L.; Tian, L.; Zhang, Z.; Qiu, J. (1987). Partition coefficients of the intermediate of pyrethroid in n-octanol/water system. Huazhong Gongxueyuan Xuebao, 15(1)135-137.
The compound `COCc1ccccc1` showed a logP of 1.67.

`C=CCOCc1ccccc1` came in with a logP of 2.41.

Turning to `COCc1ccc(COC)cc1`, the logP was determined as 1.28.

As to `ClCc1ccc(Cl)cc1`, the logP is 3.18.

Compound `CC(C)C(C#N)c1ccc(Cl)cc1` (stereo not given) registered a logP of 3.41.

Turning to `CCOCc1ccccc1`, the logP amounted to 2.16.

In the case of `COCc1ccc(CC#N)cc1`, the logP turned out to be 1.23.

Compound `N#CCc1ccc(Cl)cc1` came in with a logP of 2.47.

As for `Cc1ccc(CC#N)cc1`, the logP came out at 1.67.
